For 30 compounds, viability, inhibition and IC50 results are on record in ChEMBL document CHEMBL5247586, “Discovery of fusidic acid derivatives as novel STING inhibitors for treatment of sepsis” (Eur J Med Chem, 2022).

The term inhibition denotes the relative decrease from the control value, in per cent. The term IC50 denotes the concentration that inhibits the measured activity by half.

Molecules are shown by their SMILES.

Series [1] in a line: Cytotoxicity against mouse RAW264.7 cells assessed as cell viability at 40 uM measured after 24 hrs by MTT assay relative to control. The format is toxicity, cell-based. To be noted: read-out: Activity. For orientation: Formazan colour is commonly taken as a measure of viable cells.
For series [2], the system named is RAW264.7. Briefly: Anti inflammatory activity in LPS-induced mouse RAW264.7 cells assessed as inhibition of NO production at 2.5 uM preincubated with compound for 2 hrs followed by LPS stimulation and measured after 24 hrs by griess reagent based assay relative to control. The format is functional. To be noted: time 26 hrs.
Series [3] deals with RAW264.7. Description: Anti inflammatory activity in LPS-induced mouse RAW264.7 cells assessed as inhibition of NO production at 5 uM preincubated with compound for 2 hrs followed by LPS stimulation and measured after 24 hrs by griess reagent based assay relative to control. The format is functional. The conditions noted are these: time 26 hrs. A general note: Nitrite, measured by Griess reagent, commonly stands in for NO production.

Series [4] concerns RAW264.7. Description: Anti inflammatory activity in LPS-induced mouse RAW264.7 cells assessed as inhibition of NO production preincubated with compound for 2 hrs followed by LPS stimulation and measured after 24 hrs by griess reagent based assay. The format is functional, cell-based.

Consider `CC(=O)O[C@H]1C[C@@]2(C)[C@@H](C[C@@H](O)[C@H]3[C@@]4(C)CC[C@@H](OC(=O)c5ccccc5C(=O)n5cccn5)[C@@H](C)[C@@H]4CC[C@@]32C)/C1=C(\CCC=C(C)C)C(=O)OCc1ccccc1`, for which the viability at 24 h, 40 µM in series [1] stood at 76.6%.
For `CON(C)C(=O)c1ccccc1C(=O)O[C@@H]1CC[C@@]2(C)[C@@H](CC[C@@]3(C)[C@H]2[C@H](O)C[C@H]2/C(=C(\CCC=C(C)C)C(=O)OCc4ccccc4)[C@@H](OC(C)=O)C[C@@]23C)[C@@H]1C`, in series [1], the viability at 24 h, 40 µM worked out at 100%. Moreover, the inhibition at 2.5 µM in series [2] was 24%. Also, the inhibition at 5 µM in series [3] is 44.5%. Moreover, the concentration for half-maximal inhibition (IC50) in series [4] worked out at 6920 nM.
For `CON(C)C(=O)CCSSCCC(=O)O[C@@H]1CC[C@@]2(C)[C@@H](CC[C@@]3(C)[C@H]2[C@H](O)C[C@H]2/C(=C(\CCC=C(C)C)C(=O)OCc4ccccc4)[C@@H](OC(C)=O)C[C@@]23C)[C@@H]1C` the same measures were 90.2%, 54.6%, 59.3% and 2500 nM.
As to `CC(=O)O[C@H]1C[C@@]2(C)[C@@H](C[C@@H](O)[C@H]3[C@@]4(C)CC[C@@H](OC(=O)c5ccccc5C(=O)NOC(C)(C)C)[C@@H](C)[C@@H]4CC[C@@]32C)/C1=C(\CCC=C(C)C)C(=O)OCc1ccccc1`, in series [1], the viability at 24 h, 40 µM was 98.3%. Also, the inhibition at 2.5 µM in series [2] was 13.5%. For the same compound, the inhibition at 5 µM in series [3] came to 25.9%.
For the compound `CC(=O)O[C@H]1C[C@@]2(C)[C@@H](C[C@@H](O)[C@H]3[C@@]4(C)CC[C@@H](OC(=O)c5ccccc5C(=O)NOC5CCCCO5)[C@@H](C)[C@@H]4CC[C@@]32C)/C1=C(\CCC=C(C)C)C(=O)OCc1ccccc1` (some centres not stated), the viability at 24 h, 40 µM in series [1] is 94.1%. Also, in series [2], the inhibition at 2.5 µM was 7.93%. For the same compound, the inhibition at 5 µM in series [3] was found to be 19.4%.
Consider `CC(=O)O[C@H]1C[C@@]2(C)[C@@H](C[C@@H](O)[C@H]3[C@@]4(C)CC[C@@H](O)[C@@H](C)[C@@H]4CC[C@@]32C)/C1=C(\CCC=C(C)C)C(=O)NOC(C)(C)C`, for which, in series [1], the viability at 24 h, 40 µM worked out at 84.3%.
On the same count and under the same terms, the result for `CC(=O)O[C@H]1C[C@@]2(C)[C@@H](C[C@@H](O)[C@H]3[C@@]4(C)CC[C@@H](OC(=O)c5ccccc5C(=O)n5ccnc5)[C@@H](C)[C@@H]4CC[C@@]32C)/C1=C(\CCC=C(C)C)C(=O)OCc1ccccc1` reads 59.5%; that for `CC(=O)O[C@H]1C[C@@]2(C)[C@@H](C[C@@H](O)[C@H]3[C@@]4(C)CC[C@@H](O)[C@@H](C)[C@@H]4CC[C@@]32C)/C1=C(\CCC=C(C)C)C(=O)NOc1ccc([N+](=O)[O-])cc1[N+](=O)[O-]`, 15.2%.
Same read-out and setting: the result for `CCN1CCN(C(=O)c2ccccc2C(=O)O[C@@H]2CC[C@@]3(C)[C@@H](CC[C@@]4(C)[C@H]3[C@H](O)C[C@H]3/C(=C(\CCC=C(C)C)C(=O)OCc5ccccc5)[C@@H](OC(C)=O)C[C@@]34C)[C@@H]2C)CC1` reads 5.62%.
For `O=C(Nc1ccc(I)cc1)c1ccc([N+](=O)[O-])o1`, the IC50 in series [4] was found to be 1140 nM.
As to `CC(=O)O[C@H]1C[C@@]2(C)[C@@H](C[C@@H](O)[C@H]3[C@@]4(C)CC[C@@H](OC(=O)CCSSCCC(=O)NOc5ccc([N+](=O)[O-])cc5)[C@@H](C)[C@@H]4CC[C@@]32C)/C1=C(\CCC=C(C)C)C(=O)OCc1ccccc1`, the viability at 24 h, 40 µM in series [1] turned out to be 103%. Besides, the inhibition at 2.5 µM in series [2] was 14.9%. The inhibition at 5 µM in series [3] was determined as 28.4%.
For `CC(=O)O[C@H]1C[C@@]2(C)[C@@H](C[C@@H](O)[C@H]3[C@@]4(C)CC[C@@H](OC(=O)CCSSCCC(=O)NOCc5ccccc5)[C@@H](C)[C@@H]4CC[C@@]32C)/C1=C(\CCC=C(C)C)C(=O)OCc1ccccc1` the same measures were 98.4%, 8.17% and 12.5%.
Take `CC(=O)O[C@H]1C[C@@]2(C)[C@@H](C[C@@H](O)[C@H]3[C@@]4(C)CC[C@@H](OC(=O)CCSSCCC(=O)NOC5CCCCO5)[C@@H](C)[C@@H]4CC[C@@]32C)/C1=C(\CCC=C(C)C)C(=O)OCc1ccccc1` (some centres not stated): in series [1], the viability at 24 h, 40 µM was determined as 90.2%. Besides, the inhibition at 2.5 µM in series [2] is 55.2%. The inhibition at 5 µM in series [3] is 65.2%. For the same compound, the IC50 in series [4] was 2620 nM.
For `CC(=O)O[C@H]1C[C@@]2(C)[C@@H](C[C@@H](O)[C@H]3[C@@]4(C)CC[C@@H](OC(=O)c5ccccc5C(=O)N5CCOCC5)[C@@H](C)[C@@H]4CC[C@@]32C)/C1=C(\CCC=C(C)C)C(=O)OCc1ccccc1` the same measures were 102%, 28.4%, 44.5% and 7610 nM.
Take `CC(=O)O[C@H]1C[C@@]2(C)[C@@H](C[C@@H](O)[C@H]3[C@@]4(C)CC[C@@H](OC(=O)c5ccccc5C(=O)NOCc5ccccc5)[C@@H](C)[C@@H]4CC[C@@]32C)/C1=C(\CCC=C(C)C)C(=O)OCc1ccccc1`: the viability at 24 h, 40 µM in series [1] stood at 96%. Besides, the inhibition at 2.5 µM in series [2] stood at 8.93%. In series [3], the inhibition at 5 µM came to 11%.
On to `CC(=O)O[C@H]1C[C@@]2(C)[C@@H](C[C@@H](O)[C@H]3[C@@]4(C)CC[C@@H](O)[C@@H](C)[C@@H]4CC[C@@]32C)/C1=C(\CCC=C(C)C)C(=O)NOc1ccc([N+](=O)[O-])cc1`, for which the viability at 24 h, 40 µM in series [1] amounted to 56.5%.
With `CONC(=O)c1ccccc1C(=O)O[C@@H]1CC[C@@]2(C)[C@@H](CC[C@@]3(C)[C@H]2[C@H](O)C[C@H]2/C(=C(\CCC=C(C)C)C(=O)OCc4ccccc4)[C@@H](OC(C)=O)C[C@@]23C)[C@@H]1C`, the viability at 24 h, 40 µM in series [1] was 106%. In series [2], the inhibition at 2.5 µM stood at 17.3%. In addition, the inhibition at 5 µM in series [3] was found to be 27%.
In the case of `CC(=O)O[C@H]1C[C@@]2(C)[C@@H](C[C@@H](O)[C@H]3[C@@]4(C)CC[C@@H](OC(=O)CCSSCCC(=O)N(O)C5CCCCC5)[C@@H](C)[C@@H]4CC[C@@]32C)/C1=C(\CCC=C(C)C)C(=O)OCc1ccccc1`, the viability at 24 h, 40 µM in series [1] was found to be 80.1%.
For the compound `CC(=O)O[C@H]1C[C@@]2(C)[C@@H](C[C@@H](O)[C@H]3[C@@]4(C)CC[C@@H](O)[C@@H](C)[C@@H]4CC[C@@]32C)/C1=C(\CCC=C(C)C)C(=O)NOC1CCCCO1` (some centres not stated), the viability at 24 h, 40 µM in series [1] stood at 2.83%.
With `CC(=O)O[C@H]1C[C@@]2(C)[C@@H](C[C@@H](O)[C@H]3[C@@]4(C)CC[C@@H](O)[C@@H](C)[C@@H]4CC[C@@]32C)/C1=C(\CCC=C(C)C)C(=O)O` [FUSIDIC ACID], the viability at 24 h, 40 µM in series [1] was 91.3%. In series [2], the inhibition at 2.5 µM came out at 2.18%. Also, the inhibition at 5 µM in series [3] worked out at 14.9%.
For `C=CCONC(=O)/C(CCC=C(C)C)=C1\[C@@H](OC(C)=O)C[C@@]2(C)[C@H]1C[C@@H](O)[C@H]1[C@@]3(C)CC[C@@H](O)[C@@H](C)[C@@H]3CC[C@@]12C` the same measures were 90.8%, 17.7% and 21.3%.
With `CC(=O)O[C@H]1C[C@@]2(C)[C@@H](C[C@@H](O)[C@H]3[C@@]4(C)CC[C@@H](O)[C@@H](C)[C@@H]4CC[C@@]32C)/C1=C(\CCC=C(C)C)C(=O)NOCc1ccccc1`, the viability at 24 h, 40 µM in series [1] came to 0.07%.
Consider `CC(=O)O[C@H]1C[C@@]2(C)[C@@H](C[C@@H](O)[C@H]3[C@@]4(C)CC[C@@H](OC(=O)CCSSCCC(=O)N(C)O)[C@@H](C)[C@@H]4CC[C@@]32C)/C1=C(\CCC=C(C)C)C(=O)OCc1ccccc1`, for which the viability at 24 h, 40 µM in series [1] worked out at 48.8%.
For `CC(=O)O[C@H]1C[C@@]2(C)[C@@H](C[C@@H](O)[C@H]3[C@@]4(C)CC[C@@H](OC(=O)CCSSCCC(=O)NOC(C)(C)C)[C@@H](C)[C@@H]4CC[C@@]32C)/C1=C(\CCC=C(C)C)C(=O)OCc1ccccc1`, the viability at 24 h, 40 µM in series [1] was 76%.
In the case of `CON(C)C(=O)/C(CCC=C(C)C)=C1\[C@@H](OC(C)=O)C[C@@]2(C)[C@H]1C[C@@H](O)[C@H]1[C@@]3(C)CC[C@@H](O)[C@@H](C)[C@@H]3CC[C@@]12C`, in series [1], the viability at 24 h, 40 µM came out at 55.5%.
Same read-out and setting: the result for `CONC(=O)CCSSCCC(=O)O[C@@H]1CC[C@@]2(C)[C@@H](CC[C@@]3(C)[C@H]2[C@H](O)C[C@H]2/C(=C(\CCC=C(C)C)C(=O)OCc4ccccc4)[C@@H](OC(C)=O)C[C@@]23C)[C@@H]1C` reads 2.32%; that for `CC(=O)O[C@H]1C[C@@]2(C)[C@@H](C[C@@H](O)[C@H]3[C@@]4(C)CC[C@@H](OC(=O)c5ccccc5C(=O)NOc5ccc([N+](=O)[O-])cc5)[C@@H](C)[C@@H]4CC[C@@]32C)/C1=C(\CCC=C(C)C)C(=O)OCc1ccccc1`, 1.66%.
As to `CONC(=O)/C(CCC=C(C)C)=C1\[C@@H](OC(C)=O)C[C@@]2(C)[C@H]1C[C@@H](O)[C@H]1[C@@]3(C)CC[C@@H](O)[C@@H](C)[C@@H]3CC[C@@]12C`, the viability at 24 h, 40 µM in series [1] came to 91.4%. Besides, the inhibition at 2.5 µM in series [2] worked out at 16.5%. Besides, the inhibition at 5 µM in series [3] turned out to be 18.3%.
As to `CC(=O)O[C@H]1C[C@@]2(C)[C@@H](C[C@@H](O)[C@H]3[C@@]4(C)CC[C@@H](OC(=O)c5ccccc5C(=O)N5CCN(C)CC5)[C@@H](C)[C@@H]4CC[C@@]32C)/C1=C(\CCC=C(C)C)C(=O)OCc1ccccc1`, the viability at 24 h, 40 µM in series [1] stood at 108%. Also, the inhibition at 2.5 µM in series [2] came out at 8.43%. Also, the inhibition at 5 µM in series [3] is 14.7%.
On to `CC(=O)O[C@H]1C[C@@]2(C)[C@@H](C[C@@H](O)[C@H]3[C@@]4(C)CC[C@@H](O)[C@@H](C)[C@@H]4CC[C@@]32C)/C1=C(\CCC=C(C)C)C(=O)NOC(=O)c1ccc([N+](=O)[O-])cc1`, for which the viability at 24 h, 40 µM in series [1] is 70.8%.
